This note sets out measurements from paper PMC2912373, “Low-Density Lipoprotein Receptor-Related Protein 1 (LRP1) Mediates Neuronal Aβ42 Uptake and Lysosomal Trafficking” (PLoS ONE, 2010).

In the test the test system is N2a-pcDNA3 cells. The experiment in a line: Binding/endocytosis of FAM-Aβ42, confocal microscopy. The note with it: 5 µM bound 1 h at 4°C, 37°C for 8 h. It counts as cell-based, mouse. An excerpt: To test whether the endocytic activity of LRP1 mediates the uptake of Aβ42 and its accumulation within neurons, we analyzed the uptake of fluorescently labeled Aβ42 in control N2a cells and in N2a cells that overexpress a LRP1 minireceptor, mLRP4. This minireceptor contains the fourth ligand-binding domain of LRP1 and is capable of binding several LRP1 ligands with endocytic properties identical to the full-length LRP1 [35]. We generated stable N2a-mLRP4 and N2a-pcDNA3 cell lines and characterized them for total mLRP4 expression levels by Western blot and FACS (Fig. 1). […] To determine if mLRP4 reached the plasma membrane after synthesis, we analyzed cell surface levels of mLRP4 by FACS in non-permeabilized cells. […] To quantify the amount of internalized RAP, we performed FACS analysis of similarly treated cultures. […] Cells were then warmed to 37°C for different periods of time to allow ligand internalization, and analyzed by confocal microscopy as described in the Experimental Procedures section. […]
Figure 1 LRP1 minireceptor increases the uptake of Aβ42 in N2a-mLRP4 cells. A, cell lysates from N2a cells stably expressing LRP1 minireceptor (N2a-mLRP4) or empty pcDNA3 vector (N2a-pcDNA3) were analyzed by 7.5% SDS-PAGE and Western blotted with anti-HA or anti-LRP1 antibodies. […]

Consider “FAM-Aβ42: FAM-Aβ42 peptide (23526) from Anaspec; amyloid-β 42 with carboxyfluorescein at the N-terminal region”, for which the “Aβ42 accumulated after 8 h of warming” value is recorded as “small amount”.
